From PMC4601023, “Novel anticancer agent, SQAP, binds to focal adhesion kinase and modulates its activity” (Scientific Reports, 2015) come the findings set out here.

One may read the Kd as the equilibrium constant for the complex coming apart.

Each structure is given as a SMILES string.

Test [1] deals with VEGF mRNA expression in A549 cells. Description: VEGF mRNA expression, quantitative real-time RT-PCR, A549. It is filed as cell-based, human. The following applies: A549, 6 h, increased concentration of SQAP. On the procedure: (§1) Figure 5 Effect of SQAP on FAK phosphorylation. The level of FAK phosphorylated at Y397 and Y925 was evaluated by Western blotting. (A) HUVEC cells were serum-depleted for 20 h before treatment with SQAP or vehicle for 30 min followed by treatment with or without VEGF (50 ng/mL) for 30 min. (B) HUVEC cells were cultured as stated in section A and then treated with SQAP, SQMG or SQP. (C) A549 cells were serum-deprived for 48 h before pretreatment with SQAP or vehicle followed by treatment with or without fibronectin (10 μg/mL) for 30 min. (D) A549 cells were cultured as stated in section C and then treated with SQAP, SQMG or SQP. (E–F) HUVEC and A549 cells were treated with SQAP for 6 h before adding an RNA stabilization reagent and prepared for Quantitative real-time RT-PCR.
(§2) Total RNA was prepared using an RNeasy Mini Kit (QIAGEN Inc., Hilden, Germany) according to the manufacturer’s instructions and then reverse-transcribed to cDNA with Transcriptor First Strand cDNA Synthesis Kit (Roche Applied Science, Mnnheim, Germany). Measurement of gene expression by quantitative analysis was performed using the LightCycler system (Roche Applied Science). Quantitative real-time RT-PCR analysis of β-actin, TSP-1 and VEGF-A expression were performed using the LightCycler FastStart DNA MasterPLUS SYBR Green I system (Roche Applied Science). […]
(In general: Real-time PCR tracks product formation cycle by cycle.)

For test [2], the target named is VEGF (Homo sapiens, UniProt P15692). Kind of test: SPR analysis of SQAP-VEGF interaction. The note with it: data not shown. The test is classed as binding. The text has this: The phosphorylation of FAK in response to VEGF plays an important role in the regulation of endothelial cell migration during angiogenesis. Therefore we hypothesized that SQAP activity could potentially be mediated through binding to FAK. […] In this region, FAK interacts with paxillin through FAT domain and becomes autophosphorylated on Y397[29][30]. Y397 is an autophosphorylation site which is crucial for FAK activity and has been related to apoptosis and tumor growth. FAK is also phosphorylated at Y925, leading to the regulation of adhesion turnover and cell motility. Thus we chose to study the FAK phosphorylation on Y397 and Y925 residues. Initially, we examined whether SQAP affected phosphorylation of FAK in HUVEC cells stimulated with VEGF in the presence or absence of SQAP. […] Since SQMG was previously reported to bind to VEGF[34], we could not rule out the possibility of a binding between SQAP and VEGF so we analyzed this interaction by SPR. […] Therefore, we investigated whether SQAP could inhibit FAK phosphorylation independently of VEGF. We analyzed FAK phosphorylation in the absence of VEGF and observed that SQAP inhibited the phosphorylation of FAK signal within 1 h in a VEGF independent manner (Fig. 5B). Additionally, we treated HUVEC with VEGF in the presence of SQMG and SQP.
Sequence of VEGF (P15692 whole entry, species assumed, the tested form may be a part): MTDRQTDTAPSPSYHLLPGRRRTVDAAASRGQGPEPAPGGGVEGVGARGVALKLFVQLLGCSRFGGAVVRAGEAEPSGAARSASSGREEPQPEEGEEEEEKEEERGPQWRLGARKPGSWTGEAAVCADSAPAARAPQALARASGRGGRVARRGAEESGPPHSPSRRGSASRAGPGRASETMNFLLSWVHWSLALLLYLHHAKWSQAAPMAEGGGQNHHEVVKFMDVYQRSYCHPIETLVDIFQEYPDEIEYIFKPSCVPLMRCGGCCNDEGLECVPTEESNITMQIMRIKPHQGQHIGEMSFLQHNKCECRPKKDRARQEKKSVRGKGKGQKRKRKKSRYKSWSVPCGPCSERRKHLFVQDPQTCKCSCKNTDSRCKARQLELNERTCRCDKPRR
(In general: Surface plasmon resonance follows binding to a sensor surface in real time, without labels.)

Test [3] deals with T1, MFE-2 (598–736) (Homo sapiens, UniProt P51659).
T1 construct: For MFE-2 (598–736) DNA was amplified; made in house; host or cells: E. coli Rosetta 2 (DE3) pLysS
T1 sequence (P51659 598-736): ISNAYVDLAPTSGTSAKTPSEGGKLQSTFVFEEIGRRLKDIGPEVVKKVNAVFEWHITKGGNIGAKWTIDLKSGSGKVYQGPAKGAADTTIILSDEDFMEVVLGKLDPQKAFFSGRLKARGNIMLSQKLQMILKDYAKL
Kind of test: SPR analysis, immobilized His-tagged MFE-2 (598-736). The following applies: Biacore 3000, CM5 chip, 25 °C, read-out: dissociation constant (KD) for MFE-2. The test is classed as binding. The text has this:
SPR was utilized as an independent confirmation of the kinetic parameters between SQAP and the putative binding proteins. […] The recombinant proteins were then expressed in Escherichia coli and purified to homogeneity. In addition, full length, His-tagged ADRM1 and GST-tagged HR23B (GST-HR23B) were also used. The proteins were first immobilized on a CM5 sensor chip of the SPR biosensor (Biacore 3000). For GST-HR23B analysis, a GST protein was additionally immobilized and used as a control in order to eliminate possible nonspecific binding of SQAP. SQAP samples at different concentrations were then injected over the proteins immobilized on the sensor chip. As a negative control we used sulfoquynovosylpropanediol (SQP), which lacks the fatty acid moiety of SQAP (Fig. 1). […]
The binding kinetics of SCP-2, MFE-2, ADRM1, HR23B and FAK with SQAP and SQP were analyzed on a Biacore 3000 instrument (GE Healthcare, Little Chalfont, UK). […] The buffer of purified peptides was exchanged to HBS-P (150 mM NaCl, 0.005% Surfactant P20, 10 mM HEPES-NaOH pH 7.4) using a PD 10 column (GE Healthcare, Little Chalfont, UK) and the concentrations were quantified using DC protein assay kit (Bio-Rad Laboratories, Hercules, CA, USA). […] Kinetic parameters were determined by analyzing the data using BIAevaluation 4.1 software (GE Healthcare, Little Chalfont, UK).

Test [4] relates to VEGF mRNA expression in HUVEC cells. Description: VEGF mRNA expression, quantitative real-time RT-PCR, HUVEC. The note with it: 6 h SQAP treatment. The test is classed as cell-based, human. The protocol: as §1, §2

Regarding `CCCCCCCCCCCCCCCCCC(=O)OCCCO[C@H]1O[C@H](CS(=O)(=O)O)[C@@H](O)[C@H](O)[C@H]1O` [SQAP, sulfoquynovosylacylpropanediol], the “VEGF production level (mRNA, RT-PCR)” value in test [1] is reported as “mild production decrease”; in test [4], “reduced”. Besides, the “binding to VEGF (SPR)” value in test [2] is “did bind”. Moreover, in test [3], the Kd was found to be 14.2 µM.
